Experiment [1] deals with T1, human HDAC6 (Homo sapiens, UniProt Q9UBN7).
T1 construct: made in house
T1 sequence (Q9UBN7 1-1215): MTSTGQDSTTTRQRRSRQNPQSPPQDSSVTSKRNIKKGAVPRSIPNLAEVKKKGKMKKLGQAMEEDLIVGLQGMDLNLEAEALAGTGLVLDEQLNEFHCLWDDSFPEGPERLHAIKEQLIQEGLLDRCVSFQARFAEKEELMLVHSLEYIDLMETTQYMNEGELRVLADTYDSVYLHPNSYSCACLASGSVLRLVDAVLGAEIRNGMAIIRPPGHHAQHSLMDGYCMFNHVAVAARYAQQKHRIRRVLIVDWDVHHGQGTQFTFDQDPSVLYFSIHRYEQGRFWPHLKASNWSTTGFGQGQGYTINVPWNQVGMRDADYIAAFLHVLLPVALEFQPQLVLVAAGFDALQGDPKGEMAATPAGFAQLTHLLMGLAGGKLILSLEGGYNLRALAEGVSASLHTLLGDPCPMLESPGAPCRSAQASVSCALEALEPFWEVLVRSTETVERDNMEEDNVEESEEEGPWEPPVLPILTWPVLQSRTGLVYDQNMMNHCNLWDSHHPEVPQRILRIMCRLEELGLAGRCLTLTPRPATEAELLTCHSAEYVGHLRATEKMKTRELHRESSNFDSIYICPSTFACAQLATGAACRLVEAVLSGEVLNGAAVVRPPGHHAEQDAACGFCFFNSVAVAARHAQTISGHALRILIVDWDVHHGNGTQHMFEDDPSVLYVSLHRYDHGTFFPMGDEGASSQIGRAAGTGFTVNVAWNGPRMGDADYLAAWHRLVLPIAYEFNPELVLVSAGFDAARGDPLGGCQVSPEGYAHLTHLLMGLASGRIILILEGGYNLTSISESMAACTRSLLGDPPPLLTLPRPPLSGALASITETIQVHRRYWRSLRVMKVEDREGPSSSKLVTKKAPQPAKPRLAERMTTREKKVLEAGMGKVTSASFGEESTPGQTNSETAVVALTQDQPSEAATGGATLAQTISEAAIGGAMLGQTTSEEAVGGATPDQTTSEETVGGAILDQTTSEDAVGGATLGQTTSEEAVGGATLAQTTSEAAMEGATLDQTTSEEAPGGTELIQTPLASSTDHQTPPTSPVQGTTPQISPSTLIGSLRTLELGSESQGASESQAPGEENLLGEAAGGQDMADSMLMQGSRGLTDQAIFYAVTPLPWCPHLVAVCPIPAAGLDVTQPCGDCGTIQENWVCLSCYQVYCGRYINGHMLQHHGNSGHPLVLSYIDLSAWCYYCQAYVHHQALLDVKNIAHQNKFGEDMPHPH
The experiment can be described thus: in vitro biochemical HDAC6 deacetylation assay (LC-MS). The procedure: Deacetylation reactions were detected by discontinuous liquid chromatography-mass spectrometry (LC-MS). […] All assays were performed in triplicates.
In vitro biochemical HDAC6 deacetylation assays were performed as follows. Activity assay with human HDAC6 was based on a discontinuous liquid chromatography-mass spectrometry (LC-MS) assay as reported in Hai and Christianson, 2016. Briefly, 0.05 μM of HDAC6 was incubated with 100 μM of substrate Ac-LHSGTAK(ac)SVT-COOH in HEPES buffer [20 mM HEPES (pH 7.5), 100 mM NaCl, 5 mM KCl, 1 mM MgCl2] for 20 min at room temperature, and the reaction was quenched by the addition of acetonitrile (equal volume to the reaction solution). […] The assay was run in the presence of 10 μM of HDAC6 specific inhibitor ACY-1215 as a negative control. All the assays were performed in triplicates. The peptide was custom synthesized by Genscript. The human HDAC6 construct was expressed and purified as described in Hai and Christianson, 2016.

Experiment [2] deals with ARID1A-mutated TOV21G and OVISE cells. The experiment can be described thus: apoptosis (Annexin V, cleaved caspase 3, cleaved PARP p85) in ARID1A-mutated cells. The format is cell-based, human. The procedure:
FIG. 10 illustrates the finding that HDAC6 inhibition induces apoptosis in ARID1A-inactivated cells. […] Cells were collected and stained for apoptotic markers Annexin V. Apoptotic cells were quantified. Error bars represent standard error of the mean. The p-value was calculated via a two-tailed t-test.
FIG. 11 illustrates the results of the experiments of FIG. 10, but examined for apoptotic markers cleaved caspase 3 and cleaved PARP p85 by immunoblot. GAPDH expression was used as a loading control.
Cells were collected, incubated with an Annexin V-FITC antibody and subjected to flow cytometry analysis. Annexin V-positive cells (apoptotic) were measured with FloJo software. Mean of three independent experiments with S.E.M.
FIG. 78 illustrates percent apoptosis based on Annexin V staining in ARID1A mutated TOV21G cells treated with 1.25 μM ACY1215, 20 μM pan-caspase inhibitor Q-VD-Oph, or a combination for 48 hrs.
FIG. 79 illustrates percent apoptosis based on Annexin V staining in ARID1A mutated TOV21G cells treated with 1.25 μM ACY1215 for 48 hrs with or without knockdown of caspase 3 or caspase 9.
For immunoblotting, protein was isolated as described in Bitler et al. Nat. Med. 2015, 21, 231-238. Briefly, protein was extracted with RIPA buffer (150 mM NaCl, 1% NP40, 0.5% sodium deoxycholate, 0.1% SDS, 50 mM Tris pH 8.0, and 1 mM PMSF). Protein was separated on a SDS-PAGE and transferred to PVDF membrane. For immunoblot of p53 post-translation modifications, cells were treated with a proteasome inhibitor MG132 (10 μM) to stabilize p53 protein.
Annexin V and mitochondria membrane potentials were measured as follows. Phosphatidylserine externalization was detected using an Annexin V staining kit (Life Technologies) following the manufacturer's instructions. To measure change in mitochondria membrane potential cells were treated with 200 nM of tetramethylrhodamine, ethyl ester (TMRE; Abcam) for 15 min at 37° C. Annexin V and TMRE-positive cells were detected using the LSR18 and analyzed with the FlowJo software module.

The subject of experiment [3] is ovarian clear cell carcinoma cell lines with known ARID1A mutational status. The experiment can be described thus: colony formation assay, panel of ovarian clear cell carcinoma cell lines with or without ARID1A mutation. Type of experiment: cell-based, human. Conditions: 12 days. The procedure:
After 12 days culture, integrated density of colony formed by the indicated cells was quantified using NIH Image J software, and values were normalized to vehicle control. Data represent triplicates from independent experiments. Error bars represent S.E.M. The p-value was calculated via two-tailed t-test.
Indicated ovarian clear cell carcinoma cell lines with known ARID1A mutational status were treated with the indicated concentration of HDAC6 inhibitor CAY10603 or vehicle control in a colony formation assay. After 12 days culture, integrated density of colony formed by the indicated cells was quantified using NIH Image J software, and values were normalized to vehicle control. Data represent triplicates from independent experiments. Error bars represent S.E.M.
Colony formation assays were performed as follows. Cell lines were infected with lentivirus pLKO.1-shRNAs or pLKO.1-control with puromycin selection marker. Infected cells were selected with 1 μg/mL of puromycin for 72 hours and the selected cells were seeded in 12-well or 24-well plates. Cell medium was changed every three days with appropriate drug doses for 14 days or until control wells became confluent. Colonies were washed twice with PBS and fixed with 10% methanol and 10% acetic acid in distilled water. Fixed colonies were stained with 0.005% crystal violet. Integrated density was measured using NIH ImageJ software.

The subject of experiment [4] is p53 target genes (BAX, PUMA, NOXA, CDKN1A) in ARID1A-mutated TOV21G cells. The experiment can be described thus: RNA-seq of p53 target genes. The format is cell-based, human. Conditions: 312 nM. From the text:
RNA was extracted and utilized for next generation sequencing (RNA-seq). Expression of p53 target genes known to regulate apoptosis such as BAX, PUMA and NOXA, and known to regulate cell cycle arrest such as CDKN1A were not altered by HDAC6 inhibition in RNA-seq analysis.

Where no end group is shown, it is not given here.

As for Ala-Lys(Ac)-Ala-NH2, the “specific activity of HDAC6 with this substrate” value in experiment [1] is reported as 10.5±0.5 nmol product·nmol enzyme^−1·min^−1. Take `CC(C)[C@H](NC(=O)c1ccc2ccccc2n1)C(=O)N[C@@H](CC(=O)O)C(=O)COc1c(F)cccc1F` [Q-VD-Oph]: the “effect on apoptosis induced by ACY1215” value in experiment [2] (TOV21G, 20 μM Q-VD-Oph with 1.25 μM ACY1215, 48 hrs) is “significantly suppressed the apoptosis”. Take `CC(C)(C)OC(=O)Nc1ccc(-c2cc(C(=O)NCCCCCCC(=O)NO)no2)cc1` [CAY10603, tert-butyl 4-(3-((7-(hydroxyamino)-7-oxoheptyl)carbamoy)isoxazol-5-yl)phenylcarbamate]: the “sensitivity of ARID1A-mutated cells compared with ARID1A wild-type cells” value in experiment [3] is “more sensitive”. The “expression of p53 target genes (BAX, PUMA, NOXA, CDKN1A)” value in experiment [4] is given as “not altered”. In the case of Ac-LHSGTAK(Ac)SVT, the “specific activity of HDAC6 with this substrate” value in experiment [1] is reported as 3.4±0.4 nmol product·nmol enzyme^−1·min^−1. Consider `c1cc(SSc2ccns2)sn1` [NU9056], for which, in experiment [2] (TIP60 inhibitor with ACY1215), the “effect on apoptosis induced by ACY1215” value is “suppressed apoptosis” and the p53K120Ac levels entry is listed as “reduction of the p53K120Ac levels”.
